Patent publication US11970497B2, “Tricyclic AKR1C3 dependent KARS inhibitors” (Novartis AG, priority 2019, dated 2024)

Legend:
Human KARS = molecular target: T1, Human KARS (Homo sapiens, UniProt Q15046); assay: KARS AMP Transcreener FP assay; format: biochemical; conditions: 50 nM human KARS, 20 μM ATP, 50 μM L-Lysine, 1 μM tRNA, 2 h at RT; read-out: Human KARS Transcreener AMP assay Qualified absolute AC50
T1 construct: Human KARS protein (residues 70-584) was expressed and purified; made in house
Description: KARS AMP Transcreener FP Assay to Measure Inhibition of KARS Enzymatic Activity
Lysine-tRNA synthetase (KARS) is an enzyme that catalyzes the reaction of ATP, L-lysine, and tRNA(Lys) to form AMP, diphosphate, and L-lysyl-tRNA(Lys).
The Transceener® AMP/GMP (BellBrook Labs, Madison, WI, USA) is a far red, competitive fluorescence polarization (FP) immunoassay based on the detection of AMP, which is one of the products of aminoacylation of tRNA. In this assay, a fluorescently labeled AMP (AMP Alexa Fluor 633) is used as the tracer that can be recognized by a specific antibody. In the absence of AMP, all the tracer molecules are bound to the antibodies leading to large polarization. The AMP product generated by the enzyme reaction will compete with the tracer for binding to the antibody which leads to a decrease in the polarization. As such, the enzyme activity is inversely proportional to FP values.
Human KARS protein (residues 70-584) was expressed and purified using a similar protocol to what is described in literature (Crystal structure of tetrameric form of human lysyl-tRNA synthetase: Implications for multisynthetase complex formation Guo, M., Ignatov, M., Musier-Forsyth, K., Schimmel, P., Yang, X. L. (2008) Proc. Natl. Acad. Sci. Usa 105: 2331-2336).
The KARS enzyme assay was performed in a final volume of 10 μL per well of Corning Costar 384 well plate, flat bottom, black non-treated plate. The final assay concentration was 20 mM HEPES pH 7.5, 1 mM DTT, 50 nM human KARS, 20 μM ATP, 50 μM L-Lysine, 1 μM tRNA and 8 mM MgCl2. Compounds were serial diluted 1:3 in DMSO in a master plate to generate a 10 concentration points dose response with maximum concentration of 10 mM. 50 nL from compound master plate were spotted in each well of a 384 black plate (Corning 3573), and 5 μL of enzyme mixture containing 100 nM KARS diluted in assay buffer (20 mM HEPES pH 7.5 and 1 mM OTT) were added. The reaction was started by adding 5 μL of the substrate mixture containing 40 μM ATP (final 20 μM ATP), 100 μM L-Lysine (final 50 μM), 2 μM tRNA (final 1 μM), 16 mM MgCl2 (final 8 mM MgCl2) diluted in assay buffer (20 mM HEPES pH 7.5 and 1 mM OTT). The mixtures were mixed and incubated for 2 h at RT before the termination of the reaction.
Transcreener® stop and detection buffers were prepared (1× stop buffer [final: 0.5×], 2 nM Tracer [final: 1 nM] and 5 μg/ml anti-AMP antibody [final: 2.5 μg/ml] in deionized water) and 10 μL of the stop and detection mix were added to the reaction wells, mixed for a minute and centrifuged at 1000 rpm for 10 seconds. The plates were read after incubating at RT for 30-60 min using Infinite® M1000 with the following settings: Excitation wavelength: 635 nm; Emission wavelength: 680 nm. FP values of DMSO controls were used to normalize the data and calculate IC50s of compounds using the Helios Software suite.

[1] = test system: NCI-H1944 human lung cancer xenograft; assay: In vivo efficacy in NCI-H1944 xenograft; parameters: species or system mice
Description: Compound 40 Dose Dependent In Vivo Efficacy in High AKR1C3 Expressing Human Lung Cancer Xenograft NCI-H1944
(§1) Anti-cancer efficacy of Compound 40 was assessed in the NCI-H1944 human lung cancer xenograft model in mice that expresses high levels of AKR1C3. NCI-H1944 tumors were established in nude female mice by injection of a tumor cells subcutaneously. When tumors reached approximately 200 mm^3, mice were randomized according to tumor volume into treatment groups (n=8 per group) on Day 16.

[2] = test system: NCI-H460 human lung cancer xenograft; assay: In vivo efficacy in NCI-H460 xenograft; parameters: species or system mice; conditions: for ΔT/ΔC: qd, Day 18
Description: Compound 40 Dose Dependent In Vivo Efficacy in the KEAP1 Mutant and Moderately AKR1C3 Expressing Human Lung Cancer Xenograft NCI-H460
as §1, with “NCI-H460” for “NCI-H1944”, “moderate” for “high”, “(n=7” for “(n=8”, “8.” for “16.”

T1 sequence (Q15046 70-584): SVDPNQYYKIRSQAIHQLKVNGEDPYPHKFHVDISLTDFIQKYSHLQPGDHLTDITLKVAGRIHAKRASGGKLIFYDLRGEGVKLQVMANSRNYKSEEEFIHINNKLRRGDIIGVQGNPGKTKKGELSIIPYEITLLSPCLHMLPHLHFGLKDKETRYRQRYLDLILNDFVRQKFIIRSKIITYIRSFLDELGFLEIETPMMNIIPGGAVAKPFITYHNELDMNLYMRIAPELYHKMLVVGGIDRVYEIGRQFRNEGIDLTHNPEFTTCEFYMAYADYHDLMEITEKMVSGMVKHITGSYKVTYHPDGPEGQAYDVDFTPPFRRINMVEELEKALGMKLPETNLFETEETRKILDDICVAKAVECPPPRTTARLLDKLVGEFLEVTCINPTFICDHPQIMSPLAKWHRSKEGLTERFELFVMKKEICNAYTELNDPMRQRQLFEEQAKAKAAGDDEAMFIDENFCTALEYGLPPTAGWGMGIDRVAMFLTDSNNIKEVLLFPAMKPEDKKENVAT

With `O=C1CC2(CCN(C(=O)NCc3ccc(F)cc3)CC2)Nc2ccc(F)cc21` [Example 40] the AC50 (Human KARS) was over 10 µM, the ΔT/ΔC ([1]; 75 mg/kg po, qd, Day 44) was 4.9% and the “Tumor response” value ([1]; 75 mg/kg qd po) was “Tumor stasis”. For the same compound, the Regression ([1]; 150 mg/kg po, qd, Day 44) was 98.5%, the Regression ([1]; 300 mg/kg po, qd, Day 44) was 100% and the “Tumor response” value ([1]; all dose levels) was “efficacy benefit”. For the same compound, the “Tumor response” value ([1]; dose levels above 75 mg/kg qd, po) was “deep tumor regression”, the “Tumor response” value ([2]; 75 mg/kg qd) was “clear reduction in efficacy” and the ΔT/ΔC ([2]; 75 mg/kg, po) was 25.9%. For the same compound, the “Tumor response” value ([2]; 150 mg/kg qd) was “some reduction in efficacy”, the ΔT/ΔC ([2]; 150 mg/kg, po) was 5.6% and the ΔT/ΔC ([2]; 300 mg/kg po) was 1.8%. For the same compound, the “Tumor response” value ([2]; 300 mg/kg qd) was “Tumor stasis”.
